{"source": "patent US10206922B2", "about": "“Substituted pyrimidines for treatment of chronic cough, neuronal hypersensitivity underlying chronic cough, neuronal hypersensitivity underlying sub-acute cough and neuronal hypersensitivity underlying acute cough” (Afferent Pharmaceuticals. Inc., priority 2013, dated 2019)", "tested_on": "idiopathic/treatment-resistant chronic cough patients", "test": "double-blind randomized placebo-controlled crossover trial in idiopathic/treatment-resistant chronic cough", "format": "in vivo, human", "conditions": "2 weeks", "protocol": "Thus, the inventors explored the role of P2X3 receptors in the sensitization of vagal pathways mediating the cough reflex leading to chronic cough (CC). A study was performed to investigate the efficacy of oral administration of Compound 16 in reducing daytime cough in idiopathic/treatment-resistant chronic cough.\nIn this study, a double-blind randomized placebo-controlled crossover trial, 24 subjects (19 women, mean age 55 yrs) were randomized into a double blind, placebo-controlled, 2-period, crossover study, of Compound 16, 600 mg bd. Cough was assessed using an ambulatory sound monitoring system at baseline and after 2 weeks of treatment; primary endpoint, daytime objective cough frequency (coughs/hr) (VitaloJAK™); secondary endpoints, cough severity and urge to cough (UTC) visual analogue scales (VAS), global ratings of change and cough quality of life questionnaire (CQLQ).", "data": [{"smiles": "COc1cc(C(C)C)c(Oc2cnc(N)nc2N)cc1S(N)(=O)=O", "note": "[Compound 16, 5-(2,4-Diamino-pyrimidin-5-yloxy)-4-isopropyl-2-methoxy-benzenesulfonamide]", "values": [{"measurement": "CQLQ (cough quality of life questionnaire), mean difference vs. placebo", "setting": "600 mg bd oral, (−2 to −17), p=0.018", "value": "−9"}, {"measurement": "UTC (urge to cough) VAS, mean difference vs. placebo", "setting": "600 mg bd oral, (−2 to −41), p=0.035", "value": "−21", "unit": "mm"}, {"measurement": "cough severity VAS, mean difference vs. placebo", "setting": "600 mg bd oral, (−10 to −42), p=0.003", "value": "−26", "unit": "mm"}, {"measurement": "patients who rated an improved cough (global rating of change)", "setting": "600 mg bd oral, compared to 2/22 treated with placebo", "value": "13/24"}, {"measurement": "daytime coughs/hr (daytime objective cough frequency), mean difference vs. placebo", "setting": "Compound 16 600 mg bd oral, 24 subjects, 95% CI −50 to −88, p<0.001", "value": "−75", "unit": "%"}]}]}
